One experiment relates to 4T1. As to the kind of experiment: CCK-8 cell growth inhibition, 4T1. The format is cell-based. Conditions: Mus musculus, 4T1; breast cancer; CCK-8 assay, 72-h incubation. The method, then:
In vitro anticancer screening of all newly synthesized compounds towards human solid tumor cells, cervical (SiHa) and ovarian (SKOV3) cancer cell lines, was carried out by standard CCK-8 assay with cisplatin as the positive control, as cisplatin is one of the most used chemotherapy drugs. […] The compound was further evaluated in a dose response study against a panel of solid tumor cells, including cervical cancer cell lines (SiHa and HeLa), ovarian cancer cell lines (SKOV3 and OVCAR-5), breast cancer cell lines (4T1 and MCF-7), lung cancer cell lines (A549 and H460) to test cytotoxic activity. The IC50 values were summarized in Table 2, including the cytotoxic activity of the cisplatin used as reference compound.
The viability of cells as determined using the CCK8 assay method. Cells were seeded (2000–3000 cells per well) in 96-well plates. After incubation for 24 h in serum-containing media, the cells were treated with drugs at different concentrations diluted with culture medium for 72 h at 37 °C with a 5% CO2 atmosphere. […] Finally, absorbance values of test wells (AS), control wells (AC) and blank wells (Ab) at 450 nm were read using the Microplate Reader (Promega, WI). Inhibition ratios were calculated as follows: [(AC − AS)/ (AC−Ab)] × 100%. IC50 values were calculated using GraphPad software.
A general note: Tetrazolium assays rely on reduction of a dye to a coloured formazan, in cell work by metabolically active cells.

Another experiment concerns the target T1, CDK1/cyclinB(h) (Homo sapiens, UniProt P06493).
T1 construct: purchased Eurofins (KinaseProfiler service)
As to the kind of experiment: Kinase inhibition assay (Eurofins KinaseProfiler). As to conditions: ATP at Km. The format is biochemical. Here is the method:
(§1) Kinase inhibition profiles were determined using KinaseProfiler services provided by Eurofins, and ATP concentrations used are the Km of corresponding kinases.
(§2) CDK1/cyclinB (h) (CDK2/cyclinA (h), CDK3/cyclinE (h), CDK4/CyclinD(h), CDK5/p25 (h), CDK6/cyclinD3 (h)) were incubated with 8 mM MOPS pH 7.0, 0.2 mM EDTA, 0.1 mg/mL histone H1, 10 mM MgAcetate and [gamma-33P]-ATP (specific activity and concentration as required).
(§3) All the reactions above were initiated by the addition of the Mg/ATP mix. After incubation for 40 min at room temperature, the reaction was stopped by the addition of phosphoric acid to a concentration of 0.5%. An amount of 10 µL of the reaction was then spotted onto a P30 filtermat and washed four times for 4 min in 0.425% phosphoric acid and once in methanol prior to drying and scintillation counting.

The target in a further experiment is T2, CDK2/cyclinA(h) (Homo sapiens, UniProt P24941).
T2 construct: purchased Eurofins (KinaseProfiler service)
As to the kind of experiment: Kinase inhibition assay (Eurofins KinaseProfiler). The format is biochemical. Conditions: ATP at Km. The method, then: as §1, §2, §3

A further experiment has as its target T3, CDK3/cyclinE(h) (Homo sapiens, UniProt Q00526).
T3 construct: purchased Eurofins (KinaseProfiler service)
In words: Kinase inhibition assay (Eurofins KinaseProfiler). Type of experiment: biochemical. Conditions: ATP at Km. Here is the method:
as §1, §2, §3

The next experiment deals with T4, CDK4/cyclinD(h) (Homo sapiens, UniProt P11802).
T4 construct: purchased Eurofins (KinaseProfiler service)
T4 sequence (P11802 whole entry): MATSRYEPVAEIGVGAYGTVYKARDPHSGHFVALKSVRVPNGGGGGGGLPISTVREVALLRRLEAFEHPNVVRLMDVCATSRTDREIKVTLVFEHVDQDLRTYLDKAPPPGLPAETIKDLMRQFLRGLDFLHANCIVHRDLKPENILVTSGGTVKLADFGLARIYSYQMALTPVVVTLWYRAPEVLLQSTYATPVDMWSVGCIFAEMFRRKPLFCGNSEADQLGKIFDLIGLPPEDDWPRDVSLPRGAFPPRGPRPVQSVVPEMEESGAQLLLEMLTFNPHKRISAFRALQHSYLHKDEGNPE
T4 sequence (P30281 whole entry partner): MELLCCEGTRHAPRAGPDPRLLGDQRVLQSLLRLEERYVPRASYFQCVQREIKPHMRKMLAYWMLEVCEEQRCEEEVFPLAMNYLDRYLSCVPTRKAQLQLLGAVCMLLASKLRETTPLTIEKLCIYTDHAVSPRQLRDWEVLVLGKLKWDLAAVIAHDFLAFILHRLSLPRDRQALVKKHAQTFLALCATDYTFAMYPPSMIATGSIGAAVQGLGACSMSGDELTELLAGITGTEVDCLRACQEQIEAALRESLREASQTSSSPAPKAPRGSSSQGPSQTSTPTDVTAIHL
As to the kind of experiment: Kinase inhibition assay (Eurofins KinaseProfiler). The format is biochemical. Conditions: ATP at Km. The method, then: as §1, §2, §3

The next experiment addresses T5, CDK5/p25(h) (Homo sapiens, UniProt Q00535).
T5 construct: purchased Eurofins (KinaseProfiler service)
As to the kind of experiment: Kinase inhibition assay (Eurofins KinaseProfiler). The format is biochemical. As to conditions: ATP at Km. The method, then:
as §1, §2, §3

For another experiment, the target named is T6, CDK6/cyclinD3(h) (Homo sapiens, UniProt Q00534).
T6 construct: purchased Eurofins (KinaseProfiler service)
T6 sequence (Q00534 whole entry): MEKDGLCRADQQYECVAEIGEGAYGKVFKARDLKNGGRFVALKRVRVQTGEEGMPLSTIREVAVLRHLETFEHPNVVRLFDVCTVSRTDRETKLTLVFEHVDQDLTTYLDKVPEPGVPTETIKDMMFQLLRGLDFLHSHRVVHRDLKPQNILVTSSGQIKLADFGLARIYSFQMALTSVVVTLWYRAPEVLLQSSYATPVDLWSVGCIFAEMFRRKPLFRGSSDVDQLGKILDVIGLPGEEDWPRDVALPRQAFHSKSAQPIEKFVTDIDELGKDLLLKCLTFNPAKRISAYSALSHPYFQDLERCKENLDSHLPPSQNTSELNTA
T6 sequence (P30281 whole entry partner): as the sequence (P30281 whole entry partner) above
As to the kind of experiment: Kinase inhibition assay (Eurofins KinaseProfiler). Type of experiment: biochemical. Conditions: ATP at Km. The method, then:
as §1, §2, §3

For the next experiment, the target named is T7, Abl(h) (Homo sapiens, UniProt P00519).
T7 construct: purchased Eurofins (KinaseProfiler service)
In words: Kinase inhibition assay (Eurofins KinaseProfiler). Type of experiment: biochemical. As to conditions: ATP at Km. The method, then:
as §1
(§4) Flt1 (h) was incubated with 8 mM MOPS pH 7.0, 0.2 mM EDTA, 250 uM KKKSPGEYVNIEFG, 10 mM MgAcetate and [g- 33P]-ATP; Flt3 (h) [Abl (h)] was incubated with 8 mM MOPS pH 7.0, 0.2 mM EDTA, 50 uM EAIYAAPFAKKK, 10 mM MgAcetate and [gamma-33P]- ATP; Flt4 (h) was incubated with 8 mM MOPS pH 7.0, 0.2 mM EDTA, 500 uM GGEEEEYFELVKKKK, 10 mM MgAcetate and [gamma-33P]-ATP.
as §3

The target in the next experiment is T8, FLT1 (VEGFR1) (Homo sapiens, UniProt P17948).
T8 construct: purchased Eurofins (KinaseProfiler service)
As to the kind of experiment: Kinase inhibition assay (Eurofins KinaseProfiler). The format is biochemical. As to conditions: ATP at Km. Here is the method:
as §1, §4, §3

Another experiment addresses T9, FLT3(h) (Homo sapiens, UniProt P36888).
T9 construct: purchased Eurofins (KinaseProfiler service)
As to the kind of experiment: Kinase inhibition assay (Eurofins KinaseProfiler). Type of experiment: biochemical. As to conditions: ATP at Km. The method, then: as §1, §4, §3

Another experiment deals with T10, FLT4 (VEGFR3) (Homo sapiens, UniProt P35916).
T10 construct: purchased Eurofins (KinaseProfiler service)
T10 sequence (P35916 25-1363): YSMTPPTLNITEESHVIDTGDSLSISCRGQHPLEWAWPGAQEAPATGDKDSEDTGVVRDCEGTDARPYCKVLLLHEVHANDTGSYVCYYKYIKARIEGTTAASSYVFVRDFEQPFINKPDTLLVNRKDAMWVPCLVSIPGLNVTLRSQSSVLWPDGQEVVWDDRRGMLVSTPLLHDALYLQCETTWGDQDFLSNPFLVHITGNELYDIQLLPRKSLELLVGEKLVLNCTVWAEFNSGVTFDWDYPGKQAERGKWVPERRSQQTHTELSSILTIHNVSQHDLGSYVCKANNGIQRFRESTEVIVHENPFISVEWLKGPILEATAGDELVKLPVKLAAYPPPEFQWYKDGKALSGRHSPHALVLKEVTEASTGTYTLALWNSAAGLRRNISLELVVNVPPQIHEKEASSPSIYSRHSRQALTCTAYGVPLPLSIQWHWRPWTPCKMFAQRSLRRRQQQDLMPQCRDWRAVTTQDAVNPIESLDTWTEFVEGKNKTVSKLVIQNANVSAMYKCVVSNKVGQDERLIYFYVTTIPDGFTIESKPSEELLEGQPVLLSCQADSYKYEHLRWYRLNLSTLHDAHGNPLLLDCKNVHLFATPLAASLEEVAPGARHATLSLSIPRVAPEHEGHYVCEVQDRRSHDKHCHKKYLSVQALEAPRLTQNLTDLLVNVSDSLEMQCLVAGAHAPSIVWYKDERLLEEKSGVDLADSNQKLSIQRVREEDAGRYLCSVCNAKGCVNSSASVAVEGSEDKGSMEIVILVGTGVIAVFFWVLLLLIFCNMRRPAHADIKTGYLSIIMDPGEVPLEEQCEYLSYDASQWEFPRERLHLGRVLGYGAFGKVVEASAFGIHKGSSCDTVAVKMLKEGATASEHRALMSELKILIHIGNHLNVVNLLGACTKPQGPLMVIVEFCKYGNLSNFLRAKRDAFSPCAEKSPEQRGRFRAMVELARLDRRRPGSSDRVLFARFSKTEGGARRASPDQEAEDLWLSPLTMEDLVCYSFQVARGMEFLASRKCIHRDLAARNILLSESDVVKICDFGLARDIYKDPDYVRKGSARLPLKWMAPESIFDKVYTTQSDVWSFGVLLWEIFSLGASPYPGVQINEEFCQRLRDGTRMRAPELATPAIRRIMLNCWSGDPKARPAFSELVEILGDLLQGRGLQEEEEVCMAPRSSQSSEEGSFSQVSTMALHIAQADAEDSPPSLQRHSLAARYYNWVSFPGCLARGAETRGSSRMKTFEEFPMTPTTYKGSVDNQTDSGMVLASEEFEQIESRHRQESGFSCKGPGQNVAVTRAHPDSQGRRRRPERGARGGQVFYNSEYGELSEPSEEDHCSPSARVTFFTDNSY
In words: Kinase inhibition assay (Eurofins KinaseProfiler). The format is biochemical. Conditions: ATP at Km. Here is the method: as §1, §4, §3

In another experiment the target is T11, PDGFR-alfa(h) (Homo sapiens, UniProt P16234).
T11 construct: purchased Eurofins (KinaseProfiler service)
In words: Kinase inhibition assay (Eurofins KinaseProfiler). The format is biochemical. As to conditions: ATP at Km. Here is the method: as §1
(§5) PDGFR-alfa(h) [PDGFR-beta(h)] was incubated with 8 mM MOPS pH 7.0, 0.2 mM EDTA, 0.1 mg/mL poly(Glu, Tyr) 4:1, 10 mM MnCl2, 10 mM MgAcetate and [gamma-33P]-ATP.
as §3

A further experiment concerns the target T12, PDGFR-beta(h) (Homo sapiens, UniProt P09619).
T12 construct: purchased Eurofins (KinaseProfiler service)
As to the kind of experiment: Kinase inhibition assay (Eurofins KinaseProfiler). Type of experiment: biochemical. Conditions: ATP at Km. The method, then: as §1, §5, §3

The next experiment deals with T13, FGFR1(h) (Homo sapiens, UniProt P11362).
T13 construct: purchased Eurofins (KinaseProfiler service)
As to the kind of experiment: Kinase inhibition assay (Eurofins KinaseProfiler). The format is biochemical. Conditions: ATP at Km. The method, then: as §1
FGFR1 (h) was incubated with 8 mM MOPS pH 7.0, 0.2 mM EDTA, 250 uM KKKSPGEYVNIEFG, 10 mM MgAcetate and [gamma-33P]-ATP.
as §3

The test system of a further experiment is SKOV3 cells. As to the kind of experiment: Colony formation assay, SKOV3. Type of experiment: cell-based, human. The text has this:
Colony formation assay assesses the effect of a therapy on clonogenic survival which is one of the most important parameters of therapy efficacy in oncology. […] We also performed colony formation assay in SKOV3 cells at concentrations according to IC50 values to confirm the result (Figure S3).
Cells treated with indicated compounds or vehicle were washed with PBS, trypsinized, and reseeded into 6-well plates at 500–1000 cells per well. The colonies were allowed to form for 10–15 days. At the end of the culture, cells were washed with PBS, fixed with methanol for 30 min, then stained with 0.5% crystal violet overnight. After careful washing, the images were taken.

From paper PMC7664879, “Discovery of 12O—A Novel Oral Multi-Kinase Inhibitor for the Treatment of Solid Tumor” (Molecules, 2020) come the findings set out here.

Broadly, the IC50 is the concentration needed to halve the response being measured. Read a high IC50 as weaker potency in that assay. By inhibition is commonly meant the change of the read-out against control, counted positive when it falls.

Structures are written as SMILES.

T9 sequence (P36888 27-993): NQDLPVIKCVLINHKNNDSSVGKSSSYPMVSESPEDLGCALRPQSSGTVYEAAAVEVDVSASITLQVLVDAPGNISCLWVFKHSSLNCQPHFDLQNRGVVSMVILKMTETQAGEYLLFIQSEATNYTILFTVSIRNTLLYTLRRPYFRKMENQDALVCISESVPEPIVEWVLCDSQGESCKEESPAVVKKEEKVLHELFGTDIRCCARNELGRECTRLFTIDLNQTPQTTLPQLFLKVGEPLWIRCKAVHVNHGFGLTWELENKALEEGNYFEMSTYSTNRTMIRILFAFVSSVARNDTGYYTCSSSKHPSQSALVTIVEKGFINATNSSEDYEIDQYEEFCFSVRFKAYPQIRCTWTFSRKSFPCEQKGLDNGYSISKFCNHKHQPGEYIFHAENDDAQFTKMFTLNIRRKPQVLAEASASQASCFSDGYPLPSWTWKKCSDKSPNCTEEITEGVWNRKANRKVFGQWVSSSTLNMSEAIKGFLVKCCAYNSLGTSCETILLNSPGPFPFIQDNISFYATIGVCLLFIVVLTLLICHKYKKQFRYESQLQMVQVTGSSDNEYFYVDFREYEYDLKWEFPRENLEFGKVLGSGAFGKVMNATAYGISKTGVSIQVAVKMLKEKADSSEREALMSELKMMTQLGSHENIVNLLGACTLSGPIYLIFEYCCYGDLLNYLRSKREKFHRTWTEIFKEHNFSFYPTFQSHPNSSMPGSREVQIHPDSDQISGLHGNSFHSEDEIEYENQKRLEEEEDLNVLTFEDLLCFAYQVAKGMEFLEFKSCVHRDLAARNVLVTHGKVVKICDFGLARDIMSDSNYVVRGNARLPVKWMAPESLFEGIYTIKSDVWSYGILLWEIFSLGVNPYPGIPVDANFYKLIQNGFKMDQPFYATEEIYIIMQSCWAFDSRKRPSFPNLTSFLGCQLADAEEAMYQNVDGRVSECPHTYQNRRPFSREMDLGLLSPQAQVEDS
T5 sequence (Q00535 whole entry): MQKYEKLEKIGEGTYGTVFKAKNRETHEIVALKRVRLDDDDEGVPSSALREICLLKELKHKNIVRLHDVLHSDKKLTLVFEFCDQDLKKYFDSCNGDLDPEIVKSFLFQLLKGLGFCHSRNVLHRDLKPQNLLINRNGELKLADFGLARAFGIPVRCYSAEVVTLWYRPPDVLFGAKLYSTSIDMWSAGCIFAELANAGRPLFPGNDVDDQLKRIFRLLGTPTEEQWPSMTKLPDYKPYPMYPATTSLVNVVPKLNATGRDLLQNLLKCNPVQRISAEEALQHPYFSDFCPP
T5 sequence (Q15078 99-307 partner limits assumed): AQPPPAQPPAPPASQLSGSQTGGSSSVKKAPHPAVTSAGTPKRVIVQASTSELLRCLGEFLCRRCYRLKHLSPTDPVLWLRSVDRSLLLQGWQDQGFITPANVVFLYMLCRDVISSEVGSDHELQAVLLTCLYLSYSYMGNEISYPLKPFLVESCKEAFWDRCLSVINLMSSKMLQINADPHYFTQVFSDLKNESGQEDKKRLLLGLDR
T1 sequence (P06493 whole entry): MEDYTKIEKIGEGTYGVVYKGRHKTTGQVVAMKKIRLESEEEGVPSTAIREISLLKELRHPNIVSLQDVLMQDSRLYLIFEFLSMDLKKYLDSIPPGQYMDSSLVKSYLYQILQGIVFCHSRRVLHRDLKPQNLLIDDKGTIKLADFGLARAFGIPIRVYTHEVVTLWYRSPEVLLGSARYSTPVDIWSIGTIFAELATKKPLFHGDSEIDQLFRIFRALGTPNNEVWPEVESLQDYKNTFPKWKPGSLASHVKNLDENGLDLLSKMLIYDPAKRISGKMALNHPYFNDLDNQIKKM
T1 sequence (P14635 whole entry partner): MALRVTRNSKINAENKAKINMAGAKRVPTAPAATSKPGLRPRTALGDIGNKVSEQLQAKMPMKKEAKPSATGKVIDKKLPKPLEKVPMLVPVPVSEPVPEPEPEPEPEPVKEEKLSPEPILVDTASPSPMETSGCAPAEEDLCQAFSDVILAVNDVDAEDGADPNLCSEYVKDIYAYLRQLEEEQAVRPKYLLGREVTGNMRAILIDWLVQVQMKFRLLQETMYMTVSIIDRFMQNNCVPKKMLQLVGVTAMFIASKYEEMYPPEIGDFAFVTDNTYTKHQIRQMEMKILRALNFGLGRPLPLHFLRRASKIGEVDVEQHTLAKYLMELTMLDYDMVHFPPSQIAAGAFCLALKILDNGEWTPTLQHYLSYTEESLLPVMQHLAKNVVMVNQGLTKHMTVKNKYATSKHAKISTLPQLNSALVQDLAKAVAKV

In the case of `CC(C)n1nnc2ccc(-c3nc(Nc4ccc(CNC(=O)C5(C(=O)Nc6ccccc6)CC5)cc4)ncc3F)cc21` [12O], the IC50 in the experiment on 4T1 came to 68 nM; on CDK1/cyclinB(h), 10 nM; against CDK2/cyclinA(h), 5 nM; on CDK4/cyclinD(h) it was 157 nM; on CDK5/p25(h) it was 6 nM; on FLT3(h), 24 nM. Further, the IC50 on FLT4 (VEGFR3) amounted to 68 nM. Besides, the inhibition at 1 µM at CDK1/cyclinB(h) (1 µM) was 98%; on CDK2/cyclinA(h) (1 µM) it was 99%; against CDK3/cyclinE(h), 86%; on CDK4/cyclinD(h) (1 µM) it was 91%; against CDK5/p25(h) (1 µM) it was 99%; on CDK6/cyclinD3(h) it was 74%. In addition, the inhibition at 1 µM is 31% against Abl(h); 50% against FLT1 (VEGFR1); 98% at FLT3(h) (1 µM); 95% on FLT4 (VEGFR3) (1 µM); -1% against PDGFR-alfa(h); 12% against PDGFR-beta(h). Besides, the inhibition at 1 µM against FGFR1(h) was -23%. Further, in the experiment with SKOV3 cells, the “proliferation by colony formation assay” value was “effectively inhibited”.
